From patent US20230220029A1, “ANTIVIRAL […] AND USES THEREOF” (VIRGINIA COMMONWEALTH UNIVERSITY, priority 2020, published 2023)
Where a SMILES comes first, the peptide text is derived from it.

Tests used:
SARS-CoV-2, USA-WA1/2020 = conditions: USA-WA1/2020, 1 h, 200 μM
[1] = target: HRP-conjugated-S-protein-RBD binding to hACE2 (Severe acute respiratory syndrome coronavirus 2, UniProt P0DTC2); assay: biochemical; design: species or system SARS-CoV-2; conditions: sVNT ELISA, dose-dependent, FIG. 4
[2] = Peptide stability by repeating the sVNT ELISA two months apart with the same solubilized peptide; assay type: physicochemical; conditions: ELISA tests two months apart with the same solubilized peptide
Source text: FIGS. 4A-B. Surrogate virus test results for peptide 122023-C. FIG. 4A are results obtained in a first experiment and FIG. 4B are results obtained in a second experiment two months later using the same solubilized peptide.

[3] = target: HRP-conjugated-S-protein-RBD (SARS-CoV-2), P0DTC2

For `CC(C)C[C@H](NC(=O)[C@H](CCC(N)=O)NC(=O)[C@H](CCC(=O)O)NC(=O)[C@H](C)NC(=O)[C@H](Cc1ccccc1)NC(=O)[C@H](CCCNC(=N)N)NC(=O)[C@H](CCC(=O)O)NC(=O)[C@H](CC(C)C)NC(=O)[C@H](Cc1ccccc1)NC(=O)[C@H](Cc1ccc(O)cc1)NC(=O)[C@H](CCCCN)NC(=O)[C@H](CC(C)C)NC(=O)[C@H](CCC(N)=O)NC(=O)[C@H](CCC(N)=O)NC(=O)[C@@H](N)CCC(=O)O)C(=O)N[C@@H](CCC(=O)O)C(=O)N[C@@H](CCC(N)=O)C(=O)N[C@@H](CC(C)C)C(=O)N[C@@H](Cc1ccccc1)C(=O)N[C@@H](Cc1ccc(O)cc1)C(=O)N[C@@H](CCC(N)=O)C(=O)N[C@@H](CO)C(=O)N[C@@H](CO)C(=O)O` [Peptide 122023-A] (H-EQQLKYFLERFAEQLEQLFYQSS-OH; N-terminus and C-terminus assumed), the “inhibition at the highest concentration studied” value (SARS-CoV-2, USA-WA1/2020) was “up to 95%”.

With `CC(C)C[C@H](NC(=O)[C@H](CC(=O)O)NC(=O)[C@H](CCC(=O)O)NC(=O)[C@H](CC(C)C)NC(=O)[C@H](CCC(N)=O)NC(=O)[C@H](CCC(=O)O)NC(=O)[C@H](CC(N)=O)NC(=O)[C@H](Cc1ccccc1)NC(=O)[C@H](CCCNC(=N)N)NC(=O)[C@H](CCC(=O)O)NC(=O)[C@H](CC(C)C)NC(=O)[C@H](Cc1ccccc1)NC(=O)[C@H](Cc1ccc(O)cc1)NC(=O)[C@H](CCCCN)NC(=O)[C@H](CC(C)C)NC(=O)[C@H](CCC(N)=O)NC(=O)[C@H](CCC(N)=O)NC(=O)[C@@H](N)CCC(=O)O)C(=O)N[C@@H](Cc1ccccc1)C(=O)N[C@@H](Cc1ccc(O)cc1)C(=O)N[C@@H](CCC(N)=O)C(=O)N[C@@H](CO)C(=O)N[C@@H](CO)C(=O)O` [Peptide 122023-C] (H-EQQLKYFLERFNEQLEDLFYQSS-OH) the IC50 [1] was ~33.8 nM and the peptide stability [2] was “Excellent peptide stability”.

B1: peptide 122023-C (peptide)
peptide: EQQLKYFLERFNEQLEDLFYQSS
modifications: not checked
With B1 the IC50 [3] was 0.1 µg/mL.
